Holding throughout (assay type): biochemical
The test system of one assay is 3-DG. As to the kind of experiment: Quantitative determination of 3-DG (HPLC) after reaction of amino acids or food-derived proteins with carbohydrates at 120° C. for 60 minutes. The settings on record: for 3-DG: 120° C., 60 minutes. The method, then: Amino acids, carbohydrates and a phosphate buffer solution were charged in a 30 mL glass test tube in each amount shown in Table 1, followed by sealing and stirring. After reacting in an autoclave at 120° C. for 60 minutes, the reaction solution was cooled and then filtered through a 0.2 μm filter. The filtrate thus obtained was used as a sample. The amino acids and carbohydrates used are as follows.
To 2 mL of a sample, the same amount of a 60% perchloric acid solution was added to deproteinize the sample. The sample was neutralized with 4 mL of an aqueous saturated sodium hydrogen carbonate solution and 0.8 mL of a 0.1% methanol solution of 2,3-diaminonaphthalene was added, and then the mixture was reacted at 4° C. for 16 hours. Next, the reactant was extracted with 4.4 mL of ethyl acetate, concentrated to dryness using an evaporator, dissolved in 5 mL of methanol, and then filtered through a 0.45 μm filter. The filtrate was subjected to high-performance liquid chromatography and 3-DG was quantitatively determined under the following measurement conditions.
Injection amount: 20 μL Column: TSK-GEL, ODS-80Ts (4.6×150 mm, manufactured by TOSOH CORPORATION) Column temperature: 30° C. Mobile phase: 50 mM phosphoric acid:methanol:acetonitrile=7:1.5:1.5 Flow rate: 1 mL/min.
Food-derived proteins, carbohydrates and a phosphate buffer solution were charged in a 30 mL glass test tube in each amount shown in Table 6, followed by sealing and stirring, and then the mixture was reacted in an autoclave at 120° C. for 60 minutes. Next, the reactant was fractionated by centrifugation at 3,000 rpm for 3 hours using an ultrafiltration unit (VIVA SPIN 20, manufactured by Sartorius Corporation). The obtained low molecular weight fraction was used as a sample for determination of 3-DG, while the obtained high molecular weight fraction was used as a sample for the determination of fluorescent AGEs, RAGE agonist activity and RAGE antagonist activity. Food-derived proteins and carbohydrates used are as follows: […]

The next assay concerns pentosidine. As to the kind of experiment: Quantitative determination of pentosidine (FSK Pentosidine kit) after reaction at 120° C. for 60 minutes. The conditions noted are these: Test Example 1; for Pentosidine: lysine + arginine 0.2 g each, carbohydrate 3.40 g each, 120° C., 60 minutes. The method, then:
Amino acids, carbohydrates and a phosphate buffer solution were charged in a 30 mL glass test tube in each amount shown in Table 1, followed by sealing and stirring. […] The filtrate thus obtained was used as a sample. The amino acids and carbohydrates used are as follows. Using a pentosidine measurement kit “FSK Pentosidine (registered trademark)” (manufactured by Fushimi Pharmaceutical Co., Ltd.), quantitative determination of pentosidine was performed. Thirty (30) or more minutes before use, reagents and pentosidine solid-phase plates were put to room temperature. After dilution of the sample, a 50 μL aliquot of the sample was dispensed to a pentosidine solid plate attached to the kit, and 50 μL of a first antibody solution was dispensed into wells other than the wells for measurement of reagent blank value. After the sample and the antibody solution were mixed by shaking the plate at 300 rpm for 1 minute, the solution was reacted at 37° C. for 1 hour. Next, the reaction solution was discarded, and 200 μL of rinsing fluid was dispensed to wash the plate. The washing was performed for 3 times. After liquid on the plate was removed, 100 μL of a second antibody solution was dispensed into wells other than the wells for measurement of reagent blank value. After the solution was mixed by shaking the plate at 300 rpm for 1 minute, the solution was reacted at 25° C. for 1 hour. Then, the reaction solution was discarded, and the plate was washed for 3 times with 200 μL of rinsing fluid again. Liquid on the plate was removed, and 100 μL of a color coupler was dispensed and left to stand for 10 minutes under a light shielding condition. Finally, 100 μL of a reaction stop solution was dispensed, and within 10 minutes after the dispensing, measurement was performed at main wavelength 450 nm/reference wavelength 630 nm using a micro-plate reader. The concentration of pentosidine was determined using the calibration curve of a pentosidine standard solution, based on measurement values of the sample.

A further assay has as its system CML. As to the kind of experiment: Quantitative determination of CML (CircuLex ELISA kit) after reaction at 120° C. for 60 minutes. The conditions noted are these: Test Example 1; for CML: lysine + arginine 0.2 g each, carbohydrate 3.40 g each, 120° C., 60 minutes. How it is done:
Amino acids, carbohydrates and a phosphate buffer solution were charged in a 30 mL glass test tube in each amount shown in Table 1, followed by sealing and stirring. […] The filtrate thus obtained was used as a sample. The amino acids and carbohydrates used are as follows. Using CircuLex CML/Nε-(carboxymethyl) lysine ELISA kit (manufactured by CycLex Co., Ltd.), quantitative determination of CML was performed. Thirty (30) or more minutes before use, reagents and CML solid-phase wells were put to room temperature. […] By performing dilution with standard dilution buffers, standards 1 to 7 were prepared. The sample was diluted as necessary with sample dilution buffers. A CML-HSA standard and 60 μL of the sample were dispensed into a 96-well plate, which is not an accessory to the kit. Next, ultrapure water (Milli-Q water) was added to a first antibody powder, and by diluting with sample dilution buffers, a first antibody solution was prepared, and then 60 μL of the antibody solution was dispensed into the plate and mixed. […] Then, the reaction solution was discarded, and 350 μL of rinsing fluid was dispensed to wash the plate. The washing was performed for 4 times. After liquid on the plate was removed, 100 μL of a second antibody solution was dispensed and reacted at 25° C. for 1 hour while being shaken at 300 rpm. The reaction solution was discarded, and the plate was washed for 4 times with 350 μL of rinsing fluid again. Liquid on the plate was removed, and 100 μL of a color coupler was dispensed. Then, the solution was left to stand for 10 minutes under a light shielding condition while being shaken at 300 rpm. Finally, 100 μL of a reaction stop solution was dispensed, and within 30 minutes after the dispensing, measurement was performed at main wavelength 450 nm/reference wavelength 595 nm using a micro-plate reader. The concentration of CML was determined using the calibration curve of a CML standard solution, based on measurement values of the sample.
On the technique in general: An ELISA detects its analyte on a solid surface through an enzyme-linked reagent.

[1] abbreviates: Test Example 1, lysine + arginine 0.2 g each, carbohydrate 3.40 g each, 20 mL phosphate buffer.
[2] abbreviates: Test Example 2, gliadin 0.1 g + carbohydrate 3.4 g.
Setting [3] is: Test Example 2, lactalbumin 0.05 g + carbohydrate 3.4 g.
The mark [4] stands for this setting: Test Example 2, lactic casein 0.01 g + carbohydrate 3.4 g.
The mark [5] stands for this setting: Test Example 2, ovalbumin 0.05 g + carbohydrate 3.4 g.
[6] abbreviates: Test Example 2, soybean casein 0.01 g + carbohydrate 3.4 g.
The mark [7] stands for this setting: amino acids, compared with the test section 1 containing only sucrose.

As for `OC[C@H]1O[C@@](CO)(O[C@H]2O[C@H](CO)[C@@H](O)[C@H](O)[C@H]2O)[C@@H](O)[C@@H]1O` [Sucrose, reference compound], the 3-DG with 3-DG (setting [1]) is 151 nmol/1 g of amino acid; with 3-DG (setting [2]), 2,645 nmol/1 g of protein; with 3-DG (setting [3]), 4,758 nmol/1 g of protein; in the assay with 3-DG (setting [4]), 22,464 nmol/1 g of protein; in the assay on 3-DG (setting [5]), 4,532 nmol/1 g of protein; in the assay on 3-DG (setting [6]) it was 24,285 nmol/1 g of protein. The Pentosidine in the assay on pentosidine was 8.4 nmol/1 g of amino acid. Moreover, the CML with CML is listed as 17.4 nmol/1 g of amino acid.
Take `OC[C@@H](O)[C@@H](O[C@H]1O[C@H](CO)[C@@H](O)[C@H](O)[C@H]1O)[C@H](O)[C@@H](O)CO` [Maltitol]: the “production of 3-DG” value in the assay with 3-DG (Test Example 1, amino acids, compared with the test section 1 containing only sucrose) was “significantly decreased”; in the assay on 3-DG (Test Example 2, ovalbumin, lactalbumin, gliadin, lactic casein and soybean casein, compared with sections containing sucrose), “significantly decreased”. The 3-DG with 3-DG (setting [1]) is 36 nmol/1 g of amino acid; in the assay with 3-DG (setting [2]), 240 nmol/1 g of protein; in the assay with 3-DG (setting [3]), 656 nmol/1 g of protein; in the assay on 3-DG (setting [4]) it was 2,734 nmol/1 g of protein; in the assay with 3-DG (setting [5]), 523 nmol/1 g of protein; in the assay on 3-DG (setting [6]), 1,446 nmol/1 g of protein. Besides, in the assay with pentosidine (setting [7]), the production of pentosidine result is reported as “decreased”. Further, the Pentosidine with pentosidine is reported as 3.4 nmol/1 g of amino acid. For the same compound, the “production of CML” value in the assay with CML (setting [7]) was “decreased”. In addition, the CML in the assay with CML is 15.0 nmol/1 g of amino acid.

Source of the values: patent publication US20130287890A1, “INHIBITOR OF THE PRODUCTION OF ADVANCED GLYCATION END PRODUCTS” (UENO FINE CHEMICALS INDUSTRY, LTD., priority 2012, published 2013).
